From US20230312587A1, “PTERIDINONE COMPOUNDS AND USES THEREOF” (Vertex Pharmaceutical Incorporated, priority 2018, published 2023)
Where two headings read alike, the source gives them in different places.

Assays:
[1] = test system: β-catenin-TCF-mediated reporter transcription activity in Colo 205 cells; test: Colo 205 reporter assay (TCF/LEF luciferase); format: cell-based; conditions: Colo 205 TCF/LEF luciferase reporter, five hours after addition of compound, read-out: TCF reporter Colo205 IC50
In short: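 Luciferase signal from a TCF/LEF-driven reporter, stably integrated in Colo 205 colon cancer cells, was measured 5 h after compound addition.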

HepG2 XBP1(u)-Luc cells = test: HepG2 XBP1 reporter assay; format: cell-based; conditions: 6 h
Experimental: HepG2 hepatoma cells were transduced with a retrovirus encoding the cDNA for unspliced (u) XBP1, which contains a non-processed intron, fused to the cDNA for firefly luciferase. Upon induction of ER stress, the non-processed intron of XBP1(u) is spliced out by active IRE1alpha endonuclease. The resulting spliced (s) XBP1 is now in frame with luciferase which causes the production of active luciferase protein, resulting in bioluminescence
HepG2 XBP1(u)-Luc cells were plated […] Cultured cells with a stably transfected reporter construct were plated at approximately 30,000 cells per well into 96 well multi-well plates for twenty four hours. The testing compounds were then added to the wells in 3-fold serial dilutions using a twenty seven micromolar top concentration. A series of control wells for each cell type received only compound solvent. Six hours after the addition of compound, reporter activity for luciferase was assayed, by addition of the SteadyGlo luminescence reagent (Promega). The reporter luminescence activity was measured using Pherastar plate reader (BMG Labtech). Readings was normalized to DMSO only treated cells, and normalized activities were then used in the IC50 calculations. The HepG2 XBP1 reporter assay data are summarized in Table 47: A<0.6 μM; 0.6 μM≤B<2.0 μM; 2.0 μM≤C<10.0 μM; D≥10.0 μM.

Colo-205 cells = test: Calcium flux assay (FLIPR Calcium 5); format: cell-based; conditions: FLIPR Calcium 5, measured over 36 minutes
Experimental: Compounds described herein induced ER stress by causing intracellular calcium flux. Calcium flux was measured in Colo-205 cells using the FLTPR® Calcium 5 Assay Kit according to manufacter's protocol (Molecular Devices, Cat. #R8186) on a FLIPR3 system (Molecular Devices). Calcium flux is measured over 36 minutes. The Colo-205 calcium flux assay data are summarized in Table 47: A<0.6 μM; 0.6 μM≤B<2.0 μM; 2.0 μM≤C<10.0 μM; D≥10.0 μM.

[2] = molecular target: HEK293 membranes over-expressing WFS-1 (Homo sapiens (Human), UniProt O76024); test: Radioligand displacement assay (tritiated Compound 136 probe); format: binding; conditions: displacement of tritiated Compound 136
Experimental: Cell pellets were re-suspended in 15 times packed cellular volume in 4° C. hypotonic lysis buffer (10 mM HEPES, pH 7.5 containing 1×Protease inhibitor, 0.5 mM EDTA and 2 mM DTT). Re-suspended cells were homogenized with 6-8 strokes in a dounce homogenizer kept on ice. Lysates were centrifuged at 500×G for 15 minutes at 4° C. without brake to decelerate rotor. Following centrifugation, remove the supernatant to a fresh tube and place on ice (Supernatant 1). Repeat the above steps on the lysed cell pellet using 0.5 the original volume of hypotonic lysis buffer and remove the 500× G supernatant (Supernatant 2) and combine with Supernatant 1. Transfer the combined supernatants to a 45-Ti ultracentrifuge tube and centrifuge at 100,000× G for 30 minutes. Following ultracentrifugation, carefully remove the supernatant and discard. Resuspend the 100,000× G pellet in cold resuspension buffer (10 mM HEPES, pH 7.5, 300 mM NaCl containing 1× Protease inhibitor, 1× EDTA and 2 mM DTT). Centrifuge sample at 500× G for 10 minutes with no brake and remove any cloudy, flocculent material. Resuspend pellet in resuspension buffer to approximately 2 mg/mL of protein concentration for use in radioligand binding assay and immunoblotting.
The binding affinities of compounds were determined by measuring the competitive displacement of a tritiated Compound 136 probe from purified HEK293 membranes over-expressing WFS-1. The data for the radioligand displacement assay are summarized in Table 47: A<0.06 μM; 0.06 μM≤B<0.6 μM; 0.6 μM≤C<3.0 μM; D≥3.0 μM.
The probe Kd was determined by titrating tritiated probe under the standard assay conditions plus and minus excess unlabeled probe and fitting the resulting data to a “One site—Total and nonspecific binding” model in Graphpad Prism, version 6.0, San Diego, CA, US. Initially, 0.25 μl of compound dissolved in DMSO at varying concentrations was dispensed to a 384 well plate. Membrane and probe were both prepared at 2× their final concentration in 1× assay buffer as described above. 25 μL of membrane was added to the wells and incubated for 10 minutes. 25 μL of diluted probe was then added to the wells. The assay was incubated for 90 minutes at room temperature. The entire assay volume was then transferred to Millipore GF/B 384-well plates pretreated with 15 μL 0.5% PEI. The filter plates were washed 3× with 75 μL 25 mM TRIS, ph7.5, 0.1% BSA and then dried overnight. Following addition of 45 μL UltimaGold scintillant, the samples were counted in a Perkin Elmer Topcount. The radioactivity remaining is a measure of bound probe. From the bound probe vs concentration of compound titration curve, the IC50 is determined by fitting the data to a standard 3 parameter IC50 model using either Graphpad Prism, version 6.0, San Diego, CA, US, or using GeneData Analyzer, Basel, Switzerland.

[3] = test system: Colo205-TCF/LEF-Luciferase (Luc) tumor; test: In vivo inhibition of TCF/LEF reporter activity in Colo-205 tumors; set-up: concentration or dose not given beside the values; conditions: TCF/LEF luciferase reporter in Colo-205 tumors, nu/nu mice, oral gavage
Experimental: Colo205-TCF/LEF-Luciferase (Luc) tumor cells were expanded in complete DMEM cell culture media [DMEM (Life Technologies, product #11960-051) media supplemented with 10% FBS (Hyclone, catalog #SH30071.03), antimycotic/antibiotic (Life Technologies, product #15240-062), and Glutamax (Life Technologies, product #35050-061)] with 1 ug/ml puromycin. After reaching confluency/high density, the loosely attached cells in media were transferred from the flask to 50 ml conical tubes. Tumor cells adhered to plastic were detached with trypsin and combined with cells in the conical tubes. The tumor cells were triturated, counted, and pelleted by centrifugation. Cell pellets were resuspended in 0.9% injectable saline (6×10^7 cells/ml). A 50 ul volume (3×10^6 cells) was injected subcutaneously in the flanks of 4-6 wk old female nu/nu mice (Charles River Laboratories). Approximately 13-16 days after implantation, tumors between 200-500 mm^3 were selected (based on caliper measurements and applying the formula […]) and randomized into groups of n=4. Mice were dosed by oral gavage with compound dissolved in 1:3:5:1 EtOH:DMSO:PEG-400:H2O at a rate of 10 ml/kg or 1:3:5:1 EtOH:DMSO:PEG-400:H2O alone (Vehicle Control). Tumors were collected from mice euthanized by CO2 inhalation and snap frozen in liquid nitrogen. Tumors were stored in a −80 degrees C. freezer until they were processed.
Tumors were thawed on ice and homogenized in cold Lysis Buffer (20 mM Tris-HCl (pH 7.5), 150 mM NaCl, 1 mM Na2EDTA, 1 mM EGTA, 1% Triton, 2.5 mM sodium pyrophosphate, 1 mM beta-glycerophosphate, 1 mM Na3VO4, 1 μg/ml leupeptin, 0.05% SDS) using a closed tissue grinder system (Fisher Scientific, Cat #02-542-09) on ice according to manufacturer's instructions. For 100 mg of tumor, 500 uL of Lysis Buffer was used. Tumor lysate was transferred to a pre-chilled microcentrifuge tube and centrifuged at 10,000×g for 10 minutes at 4 degrees C. Supernatant was transferred to a new pre-chilled microcentrifuge tube and was used immediately for analysis of protein content and luciferase activity.
Protein content of tumor lysate supernatant was determined using the BCA assay (Life Technologies Cat #23225). Luciferase activity of tumor lysate supernatant was determined by addition of Steady-Glo luminescence reagent (Promega, Cat #E2550) according to manufacturer's instructions and measurement on a Pherastar luminescence plate reader (BMG Labtech). Luciferase activity was normalized to protein content.

Chain of HEK293 membranes over-expressing WFS-1 (O76024 whole entry): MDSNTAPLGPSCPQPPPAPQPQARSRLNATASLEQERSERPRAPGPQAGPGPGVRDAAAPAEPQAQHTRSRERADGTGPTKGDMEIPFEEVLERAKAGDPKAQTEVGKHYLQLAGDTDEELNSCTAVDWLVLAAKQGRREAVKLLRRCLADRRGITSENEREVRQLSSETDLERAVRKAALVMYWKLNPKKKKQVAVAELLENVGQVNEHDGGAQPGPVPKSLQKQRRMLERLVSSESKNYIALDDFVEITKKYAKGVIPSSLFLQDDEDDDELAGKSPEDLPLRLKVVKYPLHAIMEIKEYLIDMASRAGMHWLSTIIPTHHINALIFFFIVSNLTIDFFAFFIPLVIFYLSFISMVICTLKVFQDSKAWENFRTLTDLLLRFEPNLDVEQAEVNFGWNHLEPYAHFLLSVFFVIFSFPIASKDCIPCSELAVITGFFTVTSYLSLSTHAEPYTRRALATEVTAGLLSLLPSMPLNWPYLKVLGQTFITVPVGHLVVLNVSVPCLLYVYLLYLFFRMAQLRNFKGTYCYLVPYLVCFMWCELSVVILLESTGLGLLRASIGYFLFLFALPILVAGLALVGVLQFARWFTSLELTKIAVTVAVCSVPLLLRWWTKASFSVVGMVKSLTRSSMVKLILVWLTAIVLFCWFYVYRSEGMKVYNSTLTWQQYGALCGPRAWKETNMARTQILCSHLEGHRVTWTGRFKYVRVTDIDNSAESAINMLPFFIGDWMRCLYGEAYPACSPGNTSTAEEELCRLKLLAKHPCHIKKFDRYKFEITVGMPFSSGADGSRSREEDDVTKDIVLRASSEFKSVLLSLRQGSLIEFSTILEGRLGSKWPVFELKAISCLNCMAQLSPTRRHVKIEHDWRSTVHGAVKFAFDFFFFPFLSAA

Structure (SMILES) | IC50 [2] [nM] | IC50 ([1]; Homo sapiens, COLO 205, 5 h) [nM] | Percent Remaining Activity at 8 hrs after Dosing [3] [%] | further results
CC[C@H]1C(=O)Nc2c(C)nc(NCc3cnn(C4CC(F)(F)C4)c3)nc2N1C [Compound 795, (S)-2-(((1-(3,3-difluorocyclobutyl)-1H-pyrazol-4-yl)methyl)amino)-7-ethyl-4,8-dimethyl-7,8-dihydropteridin-6(5H)-one] | 60 to 600 | < 300 | – | IC50 (HepG2 XBP1(u)-Luc cells; Homo sapiens): < 600 nM; EC50 (Colo-205 cells; Homo sapiens, COLO 205, 0.6 h): < 600 nM
Cc1nc(NCc2cnn(Cc3ccc(C(F)F)nc3)c2)nc2c1NC(=O)[C@H](C1CC1)N2C [Compound 501, (S)-7-cyclopropyl-2-(((1-((6-(difluoromethyl)pyridin-3-yl)methyl)-1H-pyrazol-4-yl)methyl)amino)-4,8-dimethyl-7,8-dihydropteridin-6(5H)-one] | – | < 300 | 53 | –
Cc1nc(NCc2cnn(Cc3ccc(C(C)(F)F)nc3)c2)nc2c1NC(=O)[C@H](C(C)C)N2C [Compound 511, (S)-2-(((1-((6-(1,1-difluoroethyl)pyridin-3-yl)methyl)-1H-pyrazol-4-yl)methyl)amino)-7-isopropyl-4,8-dimethyl-7,8-dihydropteridin-6(5H)-one] | – | < 300 | 52 | –
Cc1nc(NCc2cnn([C@H]3C[C@H]3c3ccc(F)cc3)c2)nc2c1NC(=O)[C@H](C)N2C [Compound 155, (7S)-2-(((1-((1S,2S)-2-(4-fluorophenyl)cyclopropyl)-1H-pyrazol-4-yl)methyl)amino)-4,7,8-trimethyl-7,8-dihydropteridin-6(5H)-one] | – | < 300 | 17 | –
Cc1nc(NCc2cnn(Cc3ccc(C(F)(F)F)nc3)c2)nc2c1NC(=O)[C@H](C(C)(C)C)N2C [Compound 436, (7S)-7-(tert-butyl)-4,8-dimethyl-2-(((1-((6-(trifluoromethyl)pyridin-3-yl)methyl)-1H-pyrazol-4-yl)methyl)amino)-7,8-dihydropteridin-6(5H)-one] | – | < 300 | 16 | –
Cc1nc(NCc2cnn(Cc3ccnc(N(C)C)c3)c2)nc2c1NC(=O)[C@H](C1CC1)N2C [Compound 466, (S)-7-cyclopropyl-2-(((1-((2-(dimethylamino)pyridin-4-yl)methyl)-1H-pyrazol-4-yl)methyl)amino)-4,8-dimethyl-7,8-dihydropteridin-6(5H)-one] | – | < 300 | 101 | –
CO[C@H](C)[C@H]1C(=O)Nc2c(C)nc(N[C@H]3C[C@@H](COc4ccc(C(F)(F)F)nc4)C3)nc2N1C [Compound 643, (S)-7-((R)—1-methoxyethyl)-4,8-dimethyl-2-((cis-3-(((6-(trifluoromethyl)pyridin-3-yl)oxy)methyl)cyclobutyl)amino)-7,8-dihydropteridin-6(5H)-one] | < 60 | < 300 | 22 | EC50 (Colo-205 cells; Homo sapiens, COLO 205, 0.6 h): < 600 nM

Further lines, with some results ahead:

IC50 [2] [nM] | IC50 ([1]; Homo sapiens, COLO 205, 5 h) [nM] | Structure (SMILES) | Percent Remaining Activity at 8 hrs after Dosing [3] [%] | further results
60 to 600 | – | Cc1nc(N[C@H]2C[C@@H](COc3cnc(C(F)(F)F)nc3)C2)nc2c1NC(=O)[C@H](C(C)C)N2C [Compound 1417, (S)-7-isopropyl-4,8-dimethyl-2-(((1s,3R)-3-(((2-(trifluoromethyl)pyrimidin-5-yl)oxy)methyl)cyclobutyl)amino)-7,8-dihydropteridin-6(5H)-one] | – | IC50 [1]: < 300 nM; IC50 (HepG2 XBP1(u)-Luc cells): < 600 nM; EC50 (Colo-205 cells): < 600 nM
< 60 | – | Cc1nc(N[C@H]2C[C@@H](COc3ccc(C(F)(F)F)nc3)C2)nc2c1NC(=O)[C@H](C(C)C)N2C (relative stereo) [Compound 551, (S)-7-isopropyl-4,8-dimethyl-2-((cis-3-(((6-(trifluoromethyl)pyridin-3-yl)oxy)methyl)cyclobutyl)amino)-7,8-dihydropteridin-6(511)-one] | 20 | IC50 [1]: < 300 nM; EC50 (Colo-205 cells): < 600 nM
– | < 300 | Cc1nc(N[C@H]2C[C@@H](Nc3ccc(C(F)(F)F)nn3)C2)nc2c1NC(=O)[C@H](C(C)C)N2C [Compound 556, (S)-7-isopropyl-4,8-dimethyl-2-((cis-3-((6-(trifluoromethyl)pyridazin-3-yl)amino)cyclobutyl)amino)-7,8-dihydropteridin-6(5H)-one] | 62 | –
– | < 300 | Cc1nc(NC2CN(C(=O)c3cc(F)c(F)c(F)c3)C2)nc2c1NC(=O)[C@H](C(C)C)N2C [Compound 496, (S)-7-isopropyl-4,8-dimethyl-2-((1-(3,4,5-trifluorobenzoyl)azetidin-3-yl)amino)-7,8-dihydropteridin-6(5H)-one] | 17 | –
